Measurements: patent US6921806B2, “Plant growth factor” (Kyowa Hakko Kogyo Co. Ltd., priority 1995, dated 2005)
[ ]: non-standard residue; d: D form. sY = N[C@@H](Cc1ccc(OS(=O)(=O)O)cc1)C(=O)O

Test system: single asparagus cells
Assay: bioassay of the plant growth factors: colony formation frequency of incubated single asparagus cells
Type: cell-based, Asparagus officinalis L.
Details: peptide made by synthesizer and enzymatic sulfation
Description: Single asparagus cells, as obtained according to the method of Example 4, were implanted in the media, as prepared by the method of Example 5, and incubated with the present plant growth factor in the media. The influence of the plant growth factor on the proliferation of the incubated asparagus cells was determined by measuring the change in the colony formation frequency in each medium. Cells were incubated in a 24-well microtiter plate (IWAKI 3820-024). To each well of the microtiter were added 250 μl of a suspension of single asparagus cells as prepared at a cell density of 2-fold the intended final cell density, 125 μl of the liquid medium having a concentration of 4-fold the intended final concentration, and 125 μl of sterilized distilled water or 125 μl of CM as obtained in Example 6, sterilized through filtration (ADVANTEC DISMIC-13 cp, 0.20 μm) and diluted just before use, and fully stirred. Then, the plates were sealed with vinyl tape in order to prevent vaporization, in which the cells were incubated in the dark at 28° C. with shaking at 120 rpm (TAITEC BR-300L). […] On the basis of the data thus obtained for 3 wells or more, the colony formation frequency (C) and the cell viability (L) were calculated according to the following equations. […] The colony formation frequency for the asparagus cells at each CM concentration was determined. […]

H-[sY]I[sY]TQ-OH [compound (I-1)]
biological activity of the synthesized peptide compared with isolated compound (I-1): exhibited the biological activity at the same concentrations
